Results as given in patent US9839690B2, “Singlet oxygen-labile linkers and methods of production and use thereof” (The Board of Regents of the University of Oklahoma, priority 2012, dated 2017).
Blank lines part the entries; values can stand above or below the compound they belong to.

What was measured:
[1] = Photooxygenation of model compounds 2-16 with dithiaporphyrin photosensitizer, 690 nm diode laser (Example 3); assay type: physicochemical
Method: To evaluate the rate of oxidation by singlet oxygen, the model compounds 2-7 were irradiated by a diode laser (690 nm, 200 mW/cm2, 25 min) in the presence of the photosensitizer 5-(4-methoxyphenyl)-10,15,20-[…]-21,23-dithiaporphyrin (FIG. 11 and Table 5). The reaction of olefins with singlet oxygen was monitored by the decrease of olefinic proton peaks in the ^1H-NMR spectra. (Z)-1,2-Bis(phenylthio)ethylene was used as positive control. […] Oxidation of only the nitrogen analogues is probably due to electron donation from the nitrogen to the carbonyl group making the olefinic bond electron rich for attack by singlet oxygen.
In a NMR tube, an olefin (0.0048 mmol) was dissolved in CDCl3 (0.5 mL). The photosensitizer compound (32), 3 mg, 0.0048 mmol] was added to this solution. […] The reaction of olefins with singlet oxygen was monitored by the decrease of olefinic peaks in ^1H-NMR spectra. In the case of compound 14, 15 and 16 no photosensitizer was added.

tubulin = target: T1, tubulin (Sus scrofa, UniProt P02554); experiment: Fluorescence-based tubulin polymerization assay; assay type: biochemical; details: 3 μM
T1 construct: purchased Cytoskeleton, Inc. BK011P
T1 sequence (P02554 whole entry): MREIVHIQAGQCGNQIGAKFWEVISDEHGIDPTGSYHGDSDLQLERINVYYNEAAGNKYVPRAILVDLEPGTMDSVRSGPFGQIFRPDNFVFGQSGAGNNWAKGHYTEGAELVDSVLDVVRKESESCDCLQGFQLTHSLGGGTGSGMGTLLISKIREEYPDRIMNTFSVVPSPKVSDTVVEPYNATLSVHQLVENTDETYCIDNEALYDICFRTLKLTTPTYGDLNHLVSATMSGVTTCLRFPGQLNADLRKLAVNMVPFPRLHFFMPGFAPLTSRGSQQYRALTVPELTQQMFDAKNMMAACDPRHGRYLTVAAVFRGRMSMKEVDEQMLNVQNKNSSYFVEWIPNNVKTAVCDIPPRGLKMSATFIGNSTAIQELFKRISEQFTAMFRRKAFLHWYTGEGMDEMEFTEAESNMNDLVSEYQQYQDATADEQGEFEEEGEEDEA
T1 sequence (P02550 whole entry partner): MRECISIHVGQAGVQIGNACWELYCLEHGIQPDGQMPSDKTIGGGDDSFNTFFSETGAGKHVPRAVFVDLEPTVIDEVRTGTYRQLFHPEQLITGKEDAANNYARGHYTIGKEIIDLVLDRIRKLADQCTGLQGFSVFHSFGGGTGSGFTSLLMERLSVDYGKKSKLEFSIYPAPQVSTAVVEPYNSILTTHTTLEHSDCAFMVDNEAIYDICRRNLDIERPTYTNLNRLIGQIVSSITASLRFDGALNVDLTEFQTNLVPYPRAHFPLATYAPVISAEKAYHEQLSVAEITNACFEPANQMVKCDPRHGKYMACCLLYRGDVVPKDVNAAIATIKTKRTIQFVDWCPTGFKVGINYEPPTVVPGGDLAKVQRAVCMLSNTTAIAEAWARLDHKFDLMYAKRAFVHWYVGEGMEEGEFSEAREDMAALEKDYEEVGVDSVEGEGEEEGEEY
Method: Paclitaxel and CA4 were used as positive control drugs (a polymerization enhancer and an inhibitor, respectively) in addition to the negative control group (FIG. 32).
The fluorescence-based tubulin polymerization was determined by using a kit supplied by Cytoskeleton, Inc. (cat #=BK011P). Its basic principle is that the fluorescence reporter increases as it is incorporated into microtubules during the course of polymerization. The assay was performed following the experimental procedure as described in version 2.1 of the tubulin polymerization assay kit manual. Briefly, the test drug (final concentration=3 μM) was added to a mixture of tubulin and GTP in a buffer solution, and the reaction mixture was incubated at 37° C. Fluorescence was monitored (excitation=360 nm and emission=450 nm) by using a fluorescence plate reader (SpectraMax Gemini EM, Molecular device). Paclitaxel and CA4 were included in the assay as positive controls in addition to the negative control (vehicle only).

MCF-7 cells [2] = experiment: Dark toxicity, MTT (Example 5); assay type: cell-based
Method: It seemed that the bulky groups, CMP-L and CMP-NCL, reduced the cytotoxic activity of CA4, presumably through the interference of its binding to tubulin as estimated by the modeling study.
(§1) MCF-7 cells were maintained in minimum essential medium (α-MEM) supplemented with 10% bovine growth serum, 2 mM L-glutamine, 50 units/mL penicillin G, 50 μg/mL streptomycin and 1.0 μg/mL fungizone. MCF-7 cells (5,000 cells/well) were seeded on 96-well plates in the medium and then incubated for 24 h at 37° C. in 5% CO2. Stock solutions (2 mM) were prepared in DMSO. The stocks were further diluted with medium to get necessary final concentrations. The diluted solution (10 μL) was then added to each well (190 μL). The plates were incubated for 24 h and then removed from the incubator. For the phototoxicity study: The plate without a cover was placed on an orbital shaker (Lab-line, Barnstead International) and irradiated by using a diode laser (690 nm, 5.6 mW/cm^2) for 30 min. To ensure uniformity of the light during the irradiation, each plate was shaken gently on an orbital shaker. For the dark toxicity study: Plates were kept in the dark for 30 min, and then returned to the incubator. Cell viability was determined after 3 days by using the MTT assay. Briefly, a 10 μL solution of MTT (10 mg in 1 mL PBS buffer) was added to each well and the plate was incubated for 4 h. Then, the MTT solution was removed and the cells were dissolved in 200 μL of DMSO and the absorbance within each well was measured at 570 nm with background subtraction at 650 nm. The cell viability was then quantified by measuring the absorbance of the treated wells compared to that of the untreated wells (controls) and expressed as a percentage.

MCF-7 cells [3] = experiment: Phototoxicity, MTT (Example 5); assay type: cell-based
Method: On the other hand, only a photodynamic effect could damage cells by [CMP-NCL-CA4+hv].
as §1, with “For the dark toxicity study: Plates were kept in the dark for 30 min, and then returned to the incubator.” left out, “Briefly, a 10 μL solution of MTT (10 mg in 1 mL PBS buffer) was added to each well and the plate was incubated for 4 h.” left out

[4] = Photooxidation of 1,2-diheteroatom-substituted olefins with CMP-OMe, 690 nm diode laser (Example 2); assay type: physicochemical
Method: In a NMR tube, an olefin (0.0048 mmol) was dissolved in CDCl3 (0.5 mL). The photosensitizer [5-(4-methoxyphenyl)-10,15,20-triphenyl-21-23-dithiaporphyrin, CMP-OMe, 3 mg, 0.0048 mmol] was added to this solution. Then, the reaction mixture was irradiated for 15 min using a diode laser (690 nm, 200 mW/cm^2). The reaction of olefins with singlet oxygen was monitored by the decrease of olefinic peaks in ^1H-NMR spectra. The formation of the photooxidation products were also determined by appearance of the formate (or thioformate) peaks in ^1H-NMR spectra.
To examine the oxidation rate of these electron-rich alkenes with singlet oxygen (Scheme 4), compounds 6, 8, and 10 were irradiated in the presence of 5-(4-methoxyphenyl)-10,15,20-triphenyl-21,23-dithiaporphyrin as a photosensitizer.^53 All experiments were performed following the standard procedure previously set with a slight modification by using a 690 nm diode laser source (200 mW/cm^2).^35 In the experiments, the amount of sensitizer used was not catalytic. Here, the ratio of olefin and photosensitizer used was 1:1 to mimic the situation of prodrug where the olefinic linker could be used for connecting one drug molecule to one photosensitizer molecule.^7,35 The reaction solutions were irradiated for 15 min and monitored every 5 min using olefinic peaks in ^1H-NMR each time to monitor the progress of the reactions. Upon the oxidation by singlet oxygen, the olefinic peaks decreased.

[5] = 1H-NMR of drugs and model linker compound with CMP-OMe before and after irradiation; assay type: physicochemical; details: 1H-NMR
From the text: The cleavage of aminoacrylate linkers after irradiation was supported by the increased coumarin fluorescence of 9 by irradiation (FIGS. 14-21). The unique peak of each compound was integrated against the peak of CMP-OMe (four protons of CMP-OMe at 9.7 ppm, FIG. 14), which was known to be inert to singlet oxygen oxidation. […] However, we observed 77% decrease of the proton peak of the aminoacrylate linker after the irradiation (FIG. 21). […] PD 9 had negligible coumarin emission compared to that of free coumarin at the equimolar concentration. In the presence of 10 μM of 9, MCF-7 cells were incubated for 24 h to activate dPS. Then, the samples were irradiated by visible light (540±10 nm, 8 mW/cm^2, 30 min). […] The released free coumarin was also detected and quantified by HPLC based on the standard curve of free coumarin. As such, almost 99% of 9 released coumarin while only 64% of dPS of 9 were activated when irradiated.

MCF-7 cells [6] = experiment: Dark toxicity, MTT cell viability (Example 4); assay type: cell-based; details: MCF-7, 96 hr, no irradiation
Method: MCF-7 cells (5,000 cells/well) were seeded in 96 well plates. After the plates were incubated for 24 hr, the culture medium was aspirated and the cells were washed with cold PBS (100 μL) once. Then, prodrug in the 200 μL culture media was added to cells. The final concentrations ranging from 1 nM to 1 μM were used to perform concentration dependent cell viability and 25 nM prodrug was used to perform time dependent drug release study. After 96 hr incubation, the cell viability was determined by MTT assay detailed below. The experiments were performed in triplicate. IC50 values were calculated with GraphPad Prism 5.
Cell viability was assessed by MIT assay.^89 In brief, after thoroughly washing the cells 2× with PBS buffer, the cells were treated with 200 μL 0.5 mg/mL MIT (3-(4,5-dimethylthiazol-2-yl)-2,5-diphenyltetrazolium bromide, a yellow tetrazole). Subsequently, the cells were incubated at 37° C. under a humidified atmosphere of 5% CO2 for 4 h. After 4 h of incubation, the solution from each well was taken out, and washed with PBS one time and added 100 μL DMSO. The plates were shaken at room temperature for 10 min and read immediately at 570 nm on a microplate reader (Spectra max, Molecular devices). Cell viability (%) was expressed as a ratio of treated cells to control cells.

[7] = literature (ref 79); cited from earlier work
[8] = Photophysical properties of selected compounds in DMSO; assay type: physicochemical
[9] = Oxidation of aminoacrylate linker model compound with ROS quenchers; assay type: physicochemical; details: model compound 9 mM, CMP-OMe 9 mM, quencher 9 mM, 690 nm, 100 mW/cm^2
Method: To determine the effect of specific ROS quenchers on the oxidation of the aminoacrylate linker, the rate of oxidation of aminoacrylate linker was determined by ^1H-NMR using the vinyl proton of the aminoacrylate linker (FIG. 20). A solution of (E)-N-phenyl-3-(piperidin-1-yl)acrylamide (9 mM), a photosensitizer (CMP-OMe, 9 mM), a ROS quencher (0 or 9 mM) was in a CDCl3 solvent in a NMR tube was exposed to the irradiation (690 nm diode laser, 100 mW/cm^2) and ^1H-NMR was taken every 5 min. The ROS quencher was either a singlet oxygen quencher (DABCO or β-Carotene) or a superoxide quencher (1,4-Benzoquinone) and the photosensitizer was CMP-OMe (5-(4-methoxyphenyl)-10,15,20-triphenyl-21,23-dithiaporphyrin).

[10] = Relative rates of photooxidation of the linker in CMP-L-CA4 with ROS quenchers; assay type: physicochemical; details: 1.2 μmol each in CDCl3, 690 nm, 10 mW/cm^2
Method: The reaction mixture was irradiated by using diode laser (690 nm, 10 mW/cm^2). The oxidation of the olefin with SO was monitored every 5 min by the decrease of the olefinic peaks of the aminoacrylate in ^1H-NMR

[11] = literature (ref 88); cited from earlier work
[12] = 0 min, 690 nm diode laser, 200 mW/cm^2, CDCl3, no added photosensitizer for 14, 15, 16

Compound: (E)-((13S)-13-Methyl-17-oxo-7,8,9,11,12,13,14,15,16,17-decahydro-6H cyclopenta[a] phenanthren-3-yl)3-(4-((2-phenoxy-10,15,20-triphenyl-21,23-dithiaporphyrinacetoxy)methyl) piperidin-1-yl)acrylate [Compound 16 (Example 3)]
Percentile of remaining compound [1, 12]: 100 | Percentile of remaining compound ([1]; 5 min): 60 | Percentile of remaining compound ([1]; 10 min): 10 | Release of parent molecule after irradiation ([1]; GC-MS / SI): successfully released Estrone | Photo-oxidation ([1]; in 10 min): 90%

Compound: COc1ccc(/C=C\c2cc(OC)c(OC)c(OC)c2)cc1OCCCN1CCN(C(=O)COc2ccc(-c3c4nc(c(-c5ccccc5)c5ccc(s5)c(-c5ccccc5)c5nc(c(-c6ccccc6)c6ccc3s6)C=C5)C=C4)cc2)CC1 [CMP-NCL-CA4]
Inhibition of tubulin polymerization (tubulin; 1 h incubation at 37° C.): 9% | IC50 (MCF-7 cells [2]; MCF-7, dark, 3 days, read-out: IC50D (dark toxicity)): 1800 nM | Reduction of cytotoxicity relative to CA4 (MCF-7 cells [2]; dark): 200 fold | Increase of cytotoxicity after irradiation (MCF-7 cells [3]; IC50 dark vs irradiated): 1.7 fold | IC50 (MCF-7 cells [3]; MCF-7, 690 nm, 5.6 mW/cm^2, 30 min, read-out: IC50 after irradiation (phototoxicity)): 1060 nM

Compound: C(=C/Sc1ccccc1)/Sc1ccccc1 [control, (Z)-1,2-Bis(phenylthio) ethene]
Remaining olefins (%) ([4]; 0 min, CMP-OMe, 690 nm, 200 mW/cm^2, CDCl3): 100% | Remaining olefins (%) ([4]; 5 min): 38% | Remaining olefins (%) ([4]; 10 min): 11% | Remaining olefins (%) ([4]; 15 min): 0% | Percentile of remaining compound [1, 12]: 100 | Percentile of remaining compound ([1]; 5 min): 70 | Percentile of remaining compound ([1]; 10 min): 59 | Percentile of remaining compound ([1]; 15 min): 41 | Percentile of remaining compound ([1]; 20 min): 23 | Percentile of remaining compound ([1]; 25 min): 13 | Decrease of olefinic proton peaks (photo-oxidation) ([1]; 25 min of irradiation): 87%

Compound: CCc1c2c(nc3ccc(O)cc13)-c1cc3c(c(=O)n1C2)COC(=O)[C@]3(O)CC [SN-38]
Oxidation under the irradiation condition [5]: not oxidized at all | IC50 (MCF-7 cells [6]): 170 nM | Times more active than irinotecan [7]: at least 1000 times

Compound: C1CN2CCN1CC2 [DABCO, 1,4-diazabicyclo[2.2.2]octane]
Effect of ROS quencher on oxidation of the aminoacrylate linker [9]: effectively delayed the oxidation of the aminoacrylate linker | Effect of ROS quencher on oxidation of aminoacrylate linker of CMP-L-CA4 [10]: dramatically delayed the oxidation of aminoacrylate | Singlet oxygen quenching rate constant k [11]: 2.6e+08 M⁻¹ s⁻¹

Compound: O=C1C=CC(=O)C=C1 [1,4-benzoquinone]
Effect of ROS quencher on oxidation of the aminoacrylate linker [9]: did not make any delay of the oxidation of the linker | Effect of ROS quencher on oxidation of aminoacrylate linker of CMP-L-CA4 [10]: did not have any effect on the oxidation of the aminoacrylate linker

Compound: CC1=C(/C=C/C(C)=C/C=C/C(C)=C/C=C/C=C(C)/C=C/C=C(C)/C=C/C2=C(C)CCCC2(C)C)C(C)(C)CCC1 [β-carotene]
Effect of ROS quencher on oxidation of the aminoacrylate linker [9]: effectively delayed the oxidation of the aminoacrylate linker | Effect of ROS quencher on oxidation of aminoacrylate linker of CMP-L-CA4 [10]: dramatically delayed the oxidation of aminoacrylate | Singlet oxygen quenching rate constant k [11]: 1.2e+10 M⁻¹ s⁻¹

Other lines, results leading:

Extinction Coefficient [8]: 80000 M⁻¹ cm⁻¹ | FQY (φ), fluorescence quantum yield [8]: 0.90 | emax (emission maximum) [8]: 525 nm | λmax (absorption maximum) [8]: 462 nm
Compound: 5-(6) carboxy-fluorescein

Extinction Coefficient [8]: 15800 M⁻¹ cm⁻¹ | FQY (φ), fluorescence quantum yield [8]: 0.14 | emax (emission maximum) [8]: 378 nm | λmax (absorption maximum) [8]: 325 nm | Oxidation under the irradiation condition [5]: not oxidized at all
Compound: Cc1cc(=O)oc2cc(O)ccc12 [7-hydroxy-4-methyl-coumarin]

Pattern of kinetic trace of tubulin polymerization (tubulin): enhancer
Compound: CC(=O)O[C@H]1C(=O)[C@@]2(C)[C@H]([C@H](OC(=O)c3ccccc3)[C@]3(O)C[C@H](OC(=O)[C@H](O)[C@@H](NC(=O)c4ccccc4)c4ccccc4)C(C)=C1C3(C)C)[C@]1(OC(C)=O)CO[C@@H]1C[C@@H]2O [paclitaxel]
